These results are taken from patent US20080153791A1, “11Beta -Hydroxysteroid Dehydrogenases” (onpharm GmbH, priority 2005, published 2008).

One assay concerns the target T1, human 11β-HSD1 (Homo sapiens, UniProt P28845).
T1 construct: expressed in transfected cells
The experiment in a line: 11β-HSD1 reductase activity (cortisone to cortisol) in lysates of stably transfected HEK-293 cells. It counts as biochemical. Conditions: for remaining activity at 20 µM: 20 μM compound, 100 nM cortisone, HEK-293 cell lysates, read-out: 11β-HSD1 % of control; for IC50: cell lysates. The protocol: (§1) Cells were grown in 10 cm dishes to 80% confluence and incubated for 16 h in steroid-free medium (charcoal-treated fetal calf serum (FCS) from HyClone, Logan, Utah). Cells were rinsed once with phosphate-buffered saline (PBS), detached and centrifuged for 3 min at 150×g. The supernatant was removed and the cell pellet quick-frozen in a dry-ice ethanol bath. At the day of experiment, cell pellets were resuspended in buffer TS2 (100 mM NaCl, 1 mM EGTA, 1 mM EDTA, 1 mM MgCl2, 250 mM sucrose, 20 mM Tris-HCl, pH 7.4), sonicated and activities determined immediately. The rate of conversion of cortisol to cortisone or the reverse reaction was determined in 96-well optical PCR reaction plates (Applied Biosystems, Foster City, Calif.) in a final volume of 22 μl, and the tubes were capped during the reaction to avoid evaporation.
Reactions were initiated simultaneously by adding 10 μl of cell lysate and 12 μl of TS2 buffer containing the appropriate concentration of the inhibitory compound to be tested, NADPH, 30 nCi of [1,2,6,7-^3H]-cortisone and unlabeled cortisone, whereby final concentrations were 400 μM NADPH and 100 nM cortisone. Activities were determined immediately after cell disruption by measuring the conversion of radiolabeled cortisone to cortisol for 10 min.
(§2) Enzyme kinetics were analyzed by non-linear regression using Data Analysis Toolbox (MDL Information Systems Inc.) assuming first-order rate kinetics. Data represent mean ±SD of four to five independent experiments.
(§3) Assay with 20 μM of the corresponding compound in the reaction mixture, added simultaneously with the substrate:
(§4) Determination of IC50 values, using 7 different inhibitor concentrations at factor 2 intervals: […]

Another assay concerns the target T2, human 11β-HSD2 (Homo sapiens, UniProt P80365).
T2 construct: expressed in transfected cells
T2 sequence (P80365 1-405): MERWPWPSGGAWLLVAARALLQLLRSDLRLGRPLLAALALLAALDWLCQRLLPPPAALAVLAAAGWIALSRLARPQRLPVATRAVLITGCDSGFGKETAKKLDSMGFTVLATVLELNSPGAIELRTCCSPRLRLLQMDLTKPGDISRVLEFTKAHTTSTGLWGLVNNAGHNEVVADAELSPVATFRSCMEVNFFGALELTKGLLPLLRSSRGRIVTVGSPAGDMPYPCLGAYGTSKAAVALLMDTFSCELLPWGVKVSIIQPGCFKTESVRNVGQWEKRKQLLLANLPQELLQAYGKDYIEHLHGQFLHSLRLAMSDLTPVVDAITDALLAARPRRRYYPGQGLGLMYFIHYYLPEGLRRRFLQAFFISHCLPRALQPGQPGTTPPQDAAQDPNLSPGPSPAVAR
The assay can be described thus: 11β-HSD2 oxidase activity (cortisol to cortisone) in lysates of stably transfected HEK-293 cells. It is filed as biochemical. The note with it: for remaining activity at 20 µM: read-out: 11β-HSD2 % of control. On the procedure:
as §1
Reactions were initiated by simultaneously adding 10 μl of cell lysate and 12 μl of TS2 buffer containing the appropriate concentration of the inhibitory compound to be tested, NAD^+, 30 nCi of [1,2,6,7-^3H]-cortisol and unlabeled cortisol. […] Stock solutions of the inhibitors in methanol or DMSO were diluted in TS2 buffer to yield the appropriate concentrations, whereby the concentration of methanol or DMSO in the reactions were kept below 0.1%. Control reactions with or without 0.1% of the solvent were performed. Incubation was at 37° C. for 10 min with shaking, reactions were terminated by adding 10 μl of stop solution containing 2 mM of unlabeled cortisol and cortisone dissolved in methanol. The conversion of radiolabeled cortisol was determined by separation of cortisol and cortisone using TLC and a solvent system of 9:1 (v/v) chloroform:methanol, followed by scintillation counting.
as §2, §3, §4

The mark [1] stands for this setting: 20 μM compound, 25 nM cortisol, HEK-293 cell lysates.
[2] abbreviates: cell lysates, 7 inhibitor concentrations at factor 2 intervals, experiment 2, read-out: IC 50 11β-HSD2, determination 2.
Where [3] appears, read: cell lysates, 7 inhibitor concentrations at factor 2 intervals, experiment 3, read-out: IC 50 11β-HSD2, determination 3.

Each structure is given as a SMILES string. Read-outs that look alike come from different tables or passages of the source.

T1 sequence (P28845 whole entry): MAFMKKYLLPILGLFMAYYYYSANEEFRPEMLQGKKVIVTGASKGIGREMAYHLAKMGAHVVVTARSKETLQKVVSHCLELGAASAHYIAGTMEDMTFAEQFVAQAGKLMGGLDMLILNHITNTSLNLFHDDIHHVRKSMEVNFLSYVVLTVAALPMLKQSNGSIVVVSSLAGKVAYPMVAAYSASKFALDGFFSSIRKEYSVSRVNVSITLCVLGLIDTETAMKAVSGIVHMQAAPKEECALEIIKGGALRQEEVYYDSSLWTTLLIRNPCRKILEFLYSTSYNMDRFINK

As to `CCOc1ccc(C2c3cc(OCC)c(OCC)cc3CC(=O)N2c2ccc(C(=O)O)cc2)cc1OCC` (stereo not drawn) [BNW17], the results for the remaining activity at 20 µM at human 11β-HSD1 and at human 11β-HSD2 (setting [1]) were 88.2% and 120%, respectively.

On to `COc1ccc(C(=O)C2=C(O)C(=O)N(CCCn3ccnc3)C2c2ccccc2)cc1Cl` (stereo not drawn) [BNW21], for which the remaining activity at 20 µM was 48.9% on human 11β-HSD1 and 122% on human 11β-HSD2 (setting [1]).

With `COc1ccc(OC)c(C2C(C(=O)c3ccc(Br)cc3)=C(O)C(=O)N2CCCn2ccnc2)c1` (stereo not drawn) [BNW2], the remaining activity at 20 µM amounted to 78.8% at human 11β-HSD1 and 78% on human 11β-HSD2 (setting [1]).

Turning to `CCN(CC)S(=O)(=O)c1ccc(OC)c(-c2nnc(-c3cc(S(=O)(=O)N(CC)CC)ccc3OC)o2)c1` [BNW29], the remaining activity at 20 µM on human 11β-HSD1 amounted to 75.3%; on human 11β-HSD2 (setting [1]), 115%.

Regarding `CCC(Sc1nnc(-c2ccc(OC)c(OC)c2)c(-c2ccc(OC)c(OC)c2)n1)C(=O)N(CC)CC` (stereo not drawn) [BNW30], the figures for the remaining activity at 20 µM at human 11β-HSD1 and at human 11β-HSD2 (setting [1]) were 48.4% and 140%, respectively.

As to `CCCCOc1ccc(C(=O)C2=C(O)C(=O)N(CCOC)C2c2cccnc2)c(C)c1` (stereo not drawn) [BNW3], the remaining activity at 20 µM on human 11β-HSD1 amounted to 60.3%; at human 11β-HSD2 (setting [1]), 53.6%.

With `Cc1nn(CC(=O)Nc2sc(C)c(C)c2C(N)=O)c(C)c1[N+](=O)[O-]` [BNW4], the values for the remaining activity at 20 µM at human 11β-HSD1 and at human 11β-HSD2 (setting [1]) were 82.2% and 95%, respectively.

In the case of `CCN(CC(O)COc1cc(C)c(Cl)c(C)c1)S(=O)(=O)O` (stereo not drawn) [BNW1], the remaining activity at 20 µM was 102% at human 11β-HSD1 and 96.8% on human 11β-HSD2 (setting [1]).

In the case of `COC(=O)[C@@]1(C)CC[C@]2(C)CC[C@]3(C)C(=CC(=O)[C@@H]4[C@@]5(C)CC[C@H](Oc6ccccc6C(=O)O)C(C)(C)[C@@H]5CC[C@]43C)[C@@H]2C1` [BNW13, (2S,4aS,6aS,6bR,8aR,10S,12aS,12bR,14bR)-10-(2-Carboxy-phenoxy)-2,4a,6a,6b,9,9,12a-heptamethyl-13-oxo-1,2,3,4,4a,5,6,6a,6b,7,8,8a,9,10,11,12,12a,12b,13,14b-icosahydro-picene-2-carboxylic acid methyl ester], the remaining activity at 20 µM turned out to be 3.9% at human 11β-HSD1 and 14.4% at human 11β-HSD2 (setting [1]). Moreover, the IC50 was found to be 666 nM at human 11β-HSD1 (7 inhibitor concentrations at factor 2 intervals, experiment 1, read-out: IC 50 11β-HSD1, determination 1); 756 nM on human 11β-HSD1 (7 inhibitor concentrations at factor 2 intervals, experiment 2, read-out: IC 50 11β-HSD1, determination 2); 652 nM on human 11β-HSD1 (7 inhibitor concentrations at factor 2 intervals, experiment 3, read-out: IC 50 11β-HSD1, determination 3); 263 nM at human 11β-HSD2 (setting [2]); 299 nM at human 11β-HSD2 (setting [3]).

On to `COCCC1C(=O)C(O)=C(C(=O)c2ccc(OC)c(C)c2)C1c1ccc(Cl)cc1Cl` (stereo not drawn) [BNW9], for which the results for the remaining activity at 20 µM on human 11β-HSD1 and on human 11β-HSD2 (setting [1]) were 30.7% and 77.4%, respectively.

Consider `COc1cc(/C=N/NC(=O)CSc2nc3ccccc3n2Cc2ccc(C)cc2)cc(OC)c1OC(C)=O` [BNW28], for which the remaining activity at 20 µM on human 11β-HSD1 was found to be 76.7%; at human 11β-HSD2 (setting [1]), 137%.

As to `CC1(C)[C@@H](OCO)CC[C@]2(C)[C@H]3C(=O)C=C4C5=C[C@@](C)(C(=O)O)CC[C@]5(C)CC[C@@]4(C)[C@]3(C)CC[C@@H]12` [BNW15], the remaining activity at 20 µM on human 11β-HSD1 amounted to 50.4%; on human 11β-HSD2 (setting [1]), 56.9%.

For the compound `COc1cccc(/C=N/NC(=O)CSCc2ccccc2C)c1OC` [BNW23], the remaining activity at 20 µM on human 11β-HSD1 stood at 85.1%; at human 11β-HSD2 (setting [1]), 133%.

Turning to `COCCN1C(=O)C(O)=C(C(=O)c2ccc(OC)c(C)c2)C1c1ccc(C)cc1` (stereo not drawn) [BNW20], the remaining activity at 20 µM at human 11β-HSD1 is 46.8%; on human 11β-HSD2 (setting [1]), 121%.

Take `NC(=O)c1c(NC(=O)C2CC=CCC2C(=O)O)sc2c1CCCCC2` (stereo not drawn) [BNW8]: the remaining activity at 20 µM was 41.7% on human 11β-HSD1 and 103% at human 11β-HSD2 (setting [1]).

As for `COc1ccc(C(=O)NCc2cccc(Cl)c2Cl)c(C(F)(F)F)c1` [BNW6], the figures for the remaining activity at 20 µM at human 11β-HSD1 and on human 11β-HSD2 (setting [1]) were 79.6% and 145%, respectively.

Turning to `CCOc1ccc(C2C(C(=O)c3ccc(Cl)cc3)=C(O)C(=O)N2CCCn2ccnc2)cc1OCC` (stereo not drawn) [BNW22], the values for the remaining activity at 20 µM on human 11β-HSD1 and at human 11β-HSD2 (setting [1]) were 41.3% and 104%, respectively.

In the case of `CC1(C)[C@@H](N)CC[C@]2(C)[C@H]3C(=O)C=C4[C@@H]5C[C@@](C)(C(=O)O)CC[C@]5(C)CC[C@@]4(C)[C@]3(C)CC[C@@H]12` [BNW25, (2S,4aS,6aS,6bR,8aR,10S,12aS,12bR,14bR)-10-Amino-2,4a,6a,6b,9,9,12a-heptamethyl-13-oxo-1,2,3,4,4a,5,6,6a,6b,7,8,8a,9,10,11,12,12a,12b,13,14b-icosahydro-picene−2-carboxyiic acid], the results for the remaining activity at 20 µM at human 11β-HSD1 and on human 11β-HSD2 were 2.9% and 13.9%, respectively. Moreover, the IC50 on human 11β-HSD1 (mean of determinations 1-3, read-out: IC 50 11β-HSD1, Mean) turned out to be 172 nM; at human 11β-HSD2 (setting [2]) it was 54.6 nM; at human 11β-HSD2 (setting [3]), 64.9 nM; on human 11β-HSD2 (read-out: IC 50 11β-HSD2, Mean), 59.7 nM.

For the compound `COc1cc2c(cc1OC)C(COc1ccc([N+](=O)[O-])cc1)N(C(=O)c1ccc(Cl)c([N+](=O)[O-])c1)CC2` (stereo not drawn) [BNW27], the remaining activity at 20 µM is 78.6% at human 11β-HSD1 and 126% at human 11β-HSD2 (setting [1]).

Regarding `CCN(CC)S(=O)(=O)c1ccc(Cl)c(C(=O)Nc2nc3ccc(S(C)(=O)=O)cc3s2)c1` [BNW12], the remaining activity at 20 µM on human 11β-HSD1 worked out at 85.4%; at human 11β-HSD2 (setting [1]), 132%.

For the compound `CSc1nc2cc(C)c(C)cc2n1C1OC(CO)C(O)C1O` (stereo not drawn) [BNW18], the remaining activity at 20 µM on human 11β-HSD1 amounted to 92%; at human 11β-HSD2 (setting [1]), 82.8%.

Turning to `Cc1cccc(C)c1C1C(SCC(=O)Nc2c(Cl)cccc2Cl)=NN=C1c1cccc([S+]([O-])N(C)C)c1` (stereo not drawn) [BNW11], the remaining activity at 20 µM came to 70.1% on human 11β-HSD1 and 121% at human 11β-HSD2 (setting [1]).

Regarding `Cc1n[nH]c(O)c1C(c1ccc(-c2ccc(Cl)c(C(=O)O)c2)o1)c1c(O)n[nH]c1C` [BNW5], the remaining activity at 20 µM amounted to 69.8% on human 11β-HSD1 and 97.5% at human 11β-HSD2 (setting [1]).

For `COc1ccc(CNC(=O)C2CCC(=O)N2C2CCCC2)cc1OC` (stereo not drawn) [BNW26], the remaining activity at 20 µM at human 11β-HSD1 was 94.1%; on human 11β-HSD2 (setting [1]) it was 137%.
